The source made the active and inactive calls. The rule behind the calls is not given here.
Key:
[1] = target: T1, Glucocorticoid receptor (Homo sapiens) (UniProt P04150); test: Agonist activity at glucocorticoid receptor in human HeLa cells by dual-Glo luciferase assay; type: cell-based
T1 sequence (whole entry): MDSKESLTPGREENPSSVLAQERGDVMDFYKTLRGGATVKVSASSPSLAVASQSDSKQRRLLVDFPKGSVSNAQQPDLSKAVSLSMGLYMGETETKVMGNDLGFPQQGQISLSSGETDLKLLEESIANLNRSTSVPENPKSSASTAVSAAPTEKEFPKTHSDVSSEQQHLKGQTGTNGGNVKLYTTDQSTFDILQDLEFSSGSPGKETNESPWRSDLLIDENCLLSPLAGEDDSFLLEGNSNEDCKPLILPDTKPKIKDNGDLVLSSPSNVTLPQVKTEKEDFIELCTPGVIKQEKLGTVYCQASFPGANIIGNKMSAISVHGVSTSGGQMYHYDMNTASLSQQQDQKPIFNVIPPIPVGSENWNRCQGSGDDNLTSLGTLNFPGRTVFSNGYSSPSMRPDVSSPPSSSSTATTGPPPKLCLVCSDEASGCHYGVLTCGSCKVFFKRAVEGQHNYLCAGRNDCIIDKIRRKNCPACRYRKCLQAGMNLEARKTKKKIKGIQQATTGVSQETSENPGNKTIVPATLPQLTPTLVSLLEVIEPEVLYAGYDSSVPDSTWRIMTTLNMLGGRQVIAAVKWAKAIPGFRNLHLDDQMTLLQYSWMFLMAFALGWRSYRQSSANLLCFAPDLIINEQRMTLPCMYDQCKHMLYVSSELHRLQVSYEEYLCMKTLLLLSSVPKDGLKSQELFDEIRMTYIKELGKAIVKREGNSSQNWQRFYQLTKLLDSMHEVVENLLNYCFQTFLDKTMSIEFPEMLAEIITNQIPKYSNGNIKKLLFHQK

[2] = tested on: A549; test: Cytotoxicity against human A549 cells assessed as reduction in cell viability at 50 uM incubated for 72 hrs by MTT assay; type: functional, cell-based
[3] = target: T2, Androgen receptor (Homo sapiens, UniProt P10275); test: Inhibition of AR transcriptional activity in human LNCaP cells harboring ARR2PB-eGFP incubated for 72 hrs by fluorescence assay; type: cell-based
T2 sequence (P10275 whole entry): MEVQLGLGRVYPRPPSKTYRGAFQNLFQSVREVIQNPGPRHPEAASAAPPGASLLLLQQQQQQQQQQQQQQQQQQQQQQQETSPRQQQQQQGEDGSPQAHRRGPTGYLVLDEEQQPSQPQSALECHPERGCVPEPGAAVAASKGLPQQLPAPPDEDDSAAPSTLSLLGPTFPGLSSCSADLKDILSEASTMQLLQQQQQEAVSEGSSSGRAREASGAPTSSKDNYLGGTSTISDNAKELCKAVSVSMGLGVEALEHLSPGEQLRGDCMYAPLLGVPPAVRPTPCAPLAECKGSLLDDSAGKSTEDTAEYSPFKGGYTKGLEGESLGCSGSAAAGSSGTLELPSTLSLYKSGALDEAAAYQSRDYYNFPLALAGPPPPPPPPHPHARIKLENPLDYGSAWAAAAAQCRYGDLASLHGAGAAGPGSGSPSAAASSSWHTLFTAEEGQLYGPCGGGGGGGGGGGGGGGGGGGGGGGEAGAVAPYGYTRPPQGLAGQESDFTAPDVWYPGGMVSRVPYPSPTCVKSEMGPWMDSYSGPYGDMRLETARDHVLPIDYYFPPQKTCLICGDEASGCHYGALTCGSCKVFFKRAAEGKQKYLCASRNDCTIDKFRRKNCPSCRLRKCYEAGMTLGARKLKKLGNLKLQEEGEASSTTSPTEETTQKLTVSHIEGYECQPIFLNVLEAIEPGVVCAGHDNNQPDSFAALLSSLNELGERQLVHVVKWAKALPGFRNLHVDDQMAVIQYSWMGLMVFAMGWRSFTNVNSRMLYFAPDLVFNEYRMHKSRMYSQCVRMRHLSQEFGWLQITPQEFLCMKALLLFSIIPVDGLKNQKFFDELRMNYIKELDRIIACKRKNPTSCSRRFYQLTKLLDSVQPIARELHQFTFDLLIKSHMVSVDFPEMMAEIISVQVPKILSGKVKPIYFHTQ

[4] = target: T3, Progesterone receptor (Homo sapiens) (UniProt P06401); test: Antagonist activity at progesterone receptor in human HEK293T cells assessed as reduction in […] luciferase activity by dual-Glo luciferase assay; type: cell-based
T3 sequence (whole entry): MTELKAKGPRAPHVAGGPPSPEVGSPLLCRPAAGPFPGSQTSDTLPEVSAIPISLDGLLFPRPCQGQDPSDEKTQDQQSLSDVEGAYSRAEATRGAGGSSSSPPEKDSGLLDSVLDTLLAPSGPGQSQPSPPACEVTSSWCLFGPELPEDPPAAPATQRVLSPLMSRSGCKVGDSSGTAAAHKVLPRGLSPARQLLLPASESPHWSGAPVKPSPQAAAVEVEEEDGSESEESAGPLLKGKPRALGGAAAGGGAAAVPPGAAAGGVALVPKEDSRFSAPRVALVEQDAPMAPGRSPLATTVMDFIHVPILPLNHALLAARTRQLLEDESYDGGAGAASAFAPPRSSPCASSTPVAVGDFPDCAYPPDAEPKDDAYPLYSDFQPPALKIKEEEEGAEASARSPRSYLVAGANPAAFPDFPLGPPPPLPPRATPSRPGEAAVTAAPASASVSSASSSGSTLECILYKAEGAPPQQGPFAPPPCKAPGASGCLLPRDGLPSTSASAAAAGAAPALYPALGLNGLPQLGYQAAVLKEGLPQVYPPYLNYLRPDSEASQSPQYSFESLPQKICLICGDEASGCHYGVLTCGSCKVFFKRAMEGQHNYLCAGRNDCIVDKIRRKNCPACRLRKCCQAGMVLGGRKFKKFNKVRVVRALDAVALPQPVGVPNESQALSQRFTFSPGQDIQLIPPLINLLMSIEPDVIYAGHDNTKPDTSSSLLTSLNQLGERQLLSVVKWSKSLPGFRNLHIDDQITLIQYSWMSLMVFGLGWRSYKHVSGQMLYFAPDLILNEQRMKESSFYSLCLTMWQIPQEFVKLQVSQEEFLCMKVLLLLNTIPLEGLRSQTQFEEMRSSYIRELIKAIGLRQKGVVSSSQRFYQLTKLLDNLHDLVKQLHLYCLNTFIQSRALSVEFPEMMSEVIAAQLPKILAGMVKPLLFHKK

[5] = tested on: LNCaP C4-2; test: Cytotoxicity against human C4-2 cells assessed as reduction in cell viability incubated for 72 hrs by MTT assay; type: functional, cell-based
[6] = target: T4, Androgen receptor (Homo sapiens) (UniProt P10275); test: Antagonist activity at androgen receptor in human LNCaP cells assessed as inhibition of DHT-induced AR nuclear translocation at 10 uM after 12 hrs by immunofluorescence assay; type: cell-based; details: filed as antagonist
T4 sequence (whole entry): T2 sequence (P10275 whole entry)

[7] = target: T4, Androgen receptor (Homo sapiens); test: Antagonist activity at androgen receptor in human LNCaP cells assessed as reduction in DHT-induced endogenous PSA level at 0.1 to 10 uM after 48 hrs by Western blot analysis; type: cell-based; details: filed as antagonist, dose 0.1-10 µM
[8] = tested on: MCF7; test: Cytotoxicity against human MCF7 cells assessed as reduction in cell viability at low concentration incubated for 72 hrs by MTT assay; type: functional, cell-based

Activity [1]: inactive | IC50 [3]: 0.17 µM | Activity [4]: inactive | Activity [6]: Active | Activity [7]: Active
SMILES: O=c1cc(C(F)(F)F)c2ccc(OCc3ccc(Br)cc3)cc2o1
Activity [2]: Active | Activity [5]: Active | Activity [8]: inactive
